Reference: the supplement of paper PMC10307832

Key:
Experiment in all cases: relative viability (nuclei count vs DMSO), 5 days (fraction); higher = more cells survive
CX-5461 = compound: Cc1cnc(CNC(=O)c2c(=O)c3ccc(N4CCCN(C)CC4)nc3n3c2sc2ccccc23)cn1 [CX-5461]
Outline: (§1)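 Vehicle-anchored 1536-well plates of lung cancer cell lines, held overnight at 37 °C, were pinned with five library-drug doses (not always all listed) spaced by √10. No medium change followed over the next 5 days, after which the cells were fixed, permeabilised and Hoechst-stained together and imaged at 4×. Nuclei were counted with MetaXpress, and viability is treated-well nuclei over vehicle-well nuclei, taken as a median across plates. Plates passed with control CV below 25% and at least one doubling.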

IMD-0354 = compound: O=C(Nc1cc(C(F)(F)F)cc(C(F)(F)F)c1)c1cc(Cl)ccc1O [IMD-0354]
Outline: as §1

CX-5461 + Alpelisib = compound: Cc1cnc(CNC(=O)c2c(=O)c3ccc(N4CCCN(C)CC4)nc3n3c2sc2ccccc23)cn1 [CX-5461] + Cc1nc(NC(=O)N2CCC[C@H]2C(N)=O)sc1-c1ccnc(C(C)(C)C(F)(F)F)c1 [Alpelisib] (partner 2 µM)
Outline: (§2)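 After 5 days of treatment, lung cancer cells in 1536-well plates were fixed and stained in a single step (final 0.05% Triton X-100, 1% formaldehyde, 1 ug/ml Hoechst) and their nuclei counted on 4× images. Treatment had been applied by pin tool the day after seeding as one drug alone or as a fixed anchor-drug dose with five library-drug doses (not always all listed) in √10 steps. Relative viability is the nuclei count of treated wells divided by that of vehicle wells, and values are medians of duplicate plates.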

IMD-0354 + Bortezomib = compound: O=C(Nc1cc(C(F)(F)F)cc(C(F)(F)F)c1)c1cc(Cl)ccc1O [IMD-0354] + CC(C)C[C@H](NC(=O)[C@H](Cc1ccccc1)NC(=O)c1cnccn1)B(O)O [Bortezomib] (partner 0.002 µM)
Outline: as §2

Cell Line | relative viability (CX-5461; 0.01 µM) | relative viability (CX-5461; 0.03162 µM) | relative viability (CX-5461; 0.1 µM) | relative viability (CX-5461; 0.3162 µM) | relative viability (CX-5461; 1 µM) | relative viability (IMD-0354; 0.04 µM) | relative viability (IMD-0354; 0.1265 µM) | relative viability (IMD-0354; 0.4 µM) | relative viability (IMD-0354; 1.265 µM) | relative viability (IMD-0354; 4 µM) | relative viability (CX-5461 + Alpelisib; first compound 0.01 µM) | relative viability (CX-5461 + Alpelisib; first compound 0.03162 µM) | relative viability (CX-5461 + Alpelisib; first compound 0.1 µM) | relative viability (CX-5461 + Alpelisib; first compound 0.3162 µM) | relative viability (CX-5461 + Alpelisib; first compound 1 µM) | relative viability (IMD-0354 + Bortezomib; first compound 0.04 µM) | relative viability (IMD-0354 + Bortezomib; first compound 0.1265 µM) | relative viability (IMD-0354 + Bortezomib; first compound 0.4 µM) | relative viability (IMD-0354 + Bortezomib; first compound 1.265 µM) | relative viability (IMD-0354 + Bortezomib; first compound 4 µM)
NCI-H1993 | 1.06 | 1.08 | 1.01 | 0.952 | 0.993 | 0.939 | 0.89 | 0.648 | 0.555 | 0.567 | 0.721 | 0.706 | 0.667 | 0.577 | 0.605 | 1.03 | 1.28 | 0.578 | 0.506 | 0.517
NCI-H520 | 1.14 | 1.02 | 1.09 | 0.666 | 0.578 | 1.05 | 0.93 | 0.545 | 0.589 | 0.226 | 0.841 | 0.945 | 0.856 | 0.712 | 0.619 | 0.681 | 0.579 | 0.389 | 0.186 | 0.208
NCI-H647 | 1.08 | 0.935 | 0.991 | 0.822 | 0.403 | 1.04 | 1.06 | 0.405 | 0.172 | 0.11 | 1.29 | 1.22 | 1.06 | 1.27 | 0.211 | 1.15 | 1.08 | 0.439 | 0.169 | 0.128
NCI-H1792 | 1.01 | 0.894 | 0.904 | 1.05 | 0.502 | 0.969 | 0.847 | 0.553 | 0.412 | 0.434 | 0.774 | 0.744 | 0.706 | 0.898 | 0.602 | 1.11 | 0.815 | 0.688 | 0.635 | 0.321
SW 1573 | 0.94 | 0.978 | 0.689 | 0.656 | 0.33 | 1.15 | 0.916 | 0.548 | 0.22 | 0.13 | 0.733 | 0.788 | 0.91 | 0.822 | 0.36 | 1.38 | 0.96 | 0.479 | 0.563 | 0.132
NCI-H1299 | 0.998 | 0.99 | 1.02 | 1.01 | 0.944 | 0.85 | 1.02 | 0.638 | 0.221 | 0.179 | 1.04 | 1.04 | 1.08 | 1.1 | 0.992 | 0.938 | 0.965 | 0.841 | 0.438 | 0.193
NCI-H2009 | 1.02 | 1.04 | 0.879 | 1.02 | 0.75 | 1.02 | 0.929 | 0.738 | 0.19 | 0.131 | 1.12 | 1.14 | 1.12 | 1.13 | 0.681 | 0.973 | 0.878 | 0.771 | 0.105 | 0.0845
LOU-NH91 | 1.07 | 1.01 | 0.997 | 0.574 | 0.845 | 1.1 | 1 | 0.353 | 0.252 | 0.273 | 0.812 | 0.739 | 0.703 | 0.677 | 0.64 | 0.5 | 0.498 | 0.492 | 0.303 | 0.319
NCI-H2405 | 1.03 | 0.995 | 1.01 | 0.897 | 0.864 | 1.08 | 1.09 | 0.7 | 0.278 | 0.332 | 0.851 | 0.871 | 0.907 | 0.525 | 0.624 | 1.04 | 1.04 | 0.732 | 0.498 | 0.302
LCLC-97TM1 | 0.881 | 1.14 | 0.992 |  | 0.746 | 0.97 | 0.938 | 0.639 | 0.384 | 0.128 | 0.233 | 0.269 | 0.217 |  | 0.245 | 0.928 | 0.501 | 0.706 | 0.0804 | 0.242
NCI-H596 | 0.989 | 1.15 | 0.968 | 1.09 | 0.683 | 0.989 | 1.16 | 0.799 | 0.834 | 0.426 | 0.509 | 0.494 | 0.52 | 0.524 | 0.441 | 0.931 | 1.15 | 0.846 | 1.08 | 0.629
NCI-H727 | 1.07 | 1.03 | 1.03 | 0.875 | 0.78 | 0.838 | 0.908 | 0.732 | 0.494 | 0.509 | 0.606 | 0.597 | 0.547 | 0.611 | 0.592 | 0.841 | 0.923 | 0.532 | 0.38 | 0.359
H3255 | 1.02 | 0.94 | 0.921 | 0.609 | 0.909 | 0.911 | 1.01 | 0.621 | 0.601 | 0.362 | 0.763 | 0.819 | 0.727 | 0.403 | 0.73 | 0.804 | 0.9 | 0.509 | 0.22 | 0.27
NCI-H1437 | 1.03 | 0.97 | 0.894 | 1.03 | 0.877 | 1.12 | 0.941 | 0.626 | 0.32 | 0.244 | 0.979 | 0.941 |  | 0.913 | 0.801 | 0.486 | 0.383 | 0.332 | 0.0977 | 0.196
LU99A | 0.974 | 0.95 | 1.23 | 0.603 | 0.356 | 0.726 | 0.95 | 0.788 | 0.326 | 0.236 | 0.536 | 0.544 | 0.527 | 0.364 | 0.413 | 0.878 | 1.19 | 0.625 | 0.281 | 0.186
HCC-827 | 1.02 | 1.02 | 1.03 | 1.01 | 0.933 | 1.06 | 1.05 | 0.736 | 0.439 | 0.258 | 0.996 | 0.998 | 1.02 | 0.977 | 0.989 | 1.03 | 1.07 | 0.825 | 0.462 | 0.347
HCC-366 | 1.11 | 1.02 | 1 | 1.02 | 0.322 | 1.04 | 1.09 | 0.543 | 0.111 | 0.0465 | 0.591 | 0.529 | 0.33 | 0.507 | 0.234 | 1.2 | 0.885 | 0.281 | 0.099 | 0.0336
BEN | 1.04 | 1 | 1.06 | 0.979 | 0.937 | 1.22 | 0.903 | 0.64 | 0.463 | 0.277 | 1.14 | 1.04 | 1.14 | 1.07 | 0.92 | 0.874 | 0.964 | 0.462 | 0.296 | 0.217
NCI-H23 | 1.05 | 1.04 | 0.856 | 0.773 | 0.544 | 1.14 | 0.942 | 0.518 | 0.195 | 0.2 | 0.616 | 0.865 | 0.717 | 0.689 | 0.586 | 1.09 | 0.906 | 0.542 | 0.208 | 0.219
201T | 0.985 | 1 | 0.986 | 0.985 | 0.936 | 1.1 | 1.15 | 0.563 | 0.725 | 0.324 | 1.01 | 1.05 | 1.01 | 1.03 | 1 | 1.12 | 1.1 | 0.928 | 0.924 | 0.361
NCI-H460 | 1.05 | 0.97 | 0.725 | 0.93 | 0.128 | 1.02 | 1.01 | 0.379 | 0.106 | 0.0241 | 0.484 | 0.489 | 0.0913 | 0.402 | 0.0154 | 0.893 | 1.15 | 0.18 | 0.0575 | 0.0265
NCI-H661 | 1.04 | 0.978 | 1.02 | 0.626 | 0.835 | 0.999 | 0.955 | 0.646 | 0.291 | 0.305 | 0.805 | 0.674 | 0.876 |  | 0.588 | 0.968 | 0.718 | 0.719 | 0.925 | 0.276
HCC-15 | 1.01 | 1.08 | 0.978 | 0.833 | 0.689 | 0.949 | 0.935 | 0.663 | 0.16 | 0.15 | 0.937 | 0.905 | 0.91 | 0.89 | 0.779 | 1 | 0.962 | 0.549 | 0.346 | 0.119
NCI-H1563 | 0.963 | 0.954 | 0.806 | 0.939 | 0.64 | 0.979 | 0.974 | 0.856 | 0.472 | 0.402 | 0.903 | 0.85 | 0.899 | 0.901 | 0.489 | 1.01 | 0.927 | 0.768 | 0.403 | 0.38
ABC-1 | 1.04 | 0.785 | 0.712 | 0.309 | 0.568 | 1.07 | 1.05 | 0.498 | 0.222 | 0.259 | 1.12 | 0.916 |  | 1.09 | 0.751 | 0.35 | 0.332 | 0.343 | 0.213 | 0.218
LCLC-103H | 1.02 | 1.05 | 0.969 | 0.944 | 0.969 | 1.02 | 1.01 | 0.653 | 0.457 | 0.331 | 1.04 | 0.925 | 0.985 | 1.03 | 0.921 | 1.14 | 1.02 | 0.939 | 0.847 | 0.252
NCI-H441 | 1.08 | 1.17 | 0.947 | 0.888 | 0.689 | 1.13 | 0.966 | 0.521 | 0.227 | 0.243 | 0.76 | 0.876 | 0.694 | 0.727 | 0.438 |  | 0.848 | 0.218 | 0.15 | 0.0844
EPLC-272H | 0.994 | 0.886 | 0.901 |  | 0.922 | 1.21 | 1.08 | 0.717 | 0.442 | 0.16 | 0.974 | 1.06 | 0.961 |  | 0.876 | 0.966 | 0.986 | 0.686 | 0.955 | 0.266
